Experimental data taken from patent publication US10959986B2, “Inhibitors of indoleamine 2,3-dioxygenase and methods of their use” (BRISTOL-MYERS SQUIBB COMPANY, priority 2018, dated 2021).
Like-named read-outs stand apart in the source and are kept apart here.

Tests used:
human IDO1 = target: T1, human IDO1 (Homo sapiens, UniProt P14902); assay: HEK293 cell-based indoleamine 2,3-dioxygenase (IDO) assay; conditions: HEK293 cells stably expressing human IDO1, 20 hours incubation; read-out: IDO1 HEK Human IC50
T1 construct: expressed in transfected cells
T1 sequence (P14902 whole entry): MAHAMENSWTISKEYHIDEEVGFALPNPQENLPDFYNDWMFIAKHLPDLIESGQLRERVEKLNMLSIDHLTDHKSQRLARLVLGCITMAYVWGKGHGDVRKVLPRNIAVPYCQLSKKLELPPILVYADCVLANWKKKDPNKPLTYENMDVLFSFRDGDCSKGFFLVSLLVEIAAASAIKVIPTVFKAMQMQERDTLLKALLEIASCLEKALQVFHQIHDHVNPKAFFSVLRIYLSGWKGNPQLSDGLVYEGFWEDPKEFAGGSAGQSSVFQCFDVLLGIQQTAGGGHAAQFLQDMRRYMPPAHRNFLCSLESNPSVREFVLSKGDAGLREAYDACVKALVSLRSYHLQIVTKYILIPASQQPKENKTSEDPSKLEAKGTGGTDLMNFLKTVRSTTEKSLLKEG
Experimental: Assessment of Inhibitor Activity in HEK293 Cell-Based Indoleamine 2,3-Dioxygenase (IDO) Assay.
HEK293 cells were transfected with a pCDNA-based mammalian expression vector harboring human IDO1 cDNA (NM 002164.2) by electroporation. They were cultured in medium (DMEM with 10% FBS) containing 1 mg/ml G418 for two weeks. Clones of HEK293 cells that stably expressed human IDO1 protein were selected and expanded for IDO inhibition assay.
The human IDO1/HEK293 cells were seeded at 10,000 cells per 50 μL per well with RPMI/phenol red free media contains 10% FBS in a 384-well black wall clear bottom tissue culture plate (Matrix Technologies LLC) 100 nL of certain concentration of compound was then added to each well using ECHO liquid handling systems. The cells were incubated for 20 hours in 37° C. incubator with 5% CO2.
The compound treatments were stopped by adding trichloroacetic acid (Sigma-Aldrich) to a final concentration at 0.2%. The cell plate was further incubated at 50° C. for 30 minute. The equal volume supernatant (20 μL) and 0.2% (w/v) Ehrlich reagent (4-dimethylaminobenzaldehyde, Sigma-Aldrich) in glacial acetic acid were mixed in a new clear bottom 384-well plate. This plate was then incubated at room temperature for 30 minute. The absorbance at 490 nm was measured on Envision plate reader.
Compound IC50 values were calculated using the counts of 500 nM of a reference standard treatment as one hundred percent inhibition, and counts of no compound but DMSO treatment as zero percent inhibition.

[1] = target: T2, indoleamine 2,3-dioxygenase (IDO) (Homo sapiens, UniProt P14902); assay: HeLa cell-based indoleamine 2,3-dioxygenase (IDO) assay; conditions: HeLa cells with IFNγ 25 ng/mL, 48 hour incubation, kynurenine production
T2 construct: media containing IFNγ (#285-IF/CF, R&D Systems) at a final concentration of 25 ng/mL; endogenous in cells; host or cells: HeLa (ATCC CCL-2), induced with IFN-gamma
T2 sequence (P14902 whole entry): as above
Experimental: Assessment of Inhibitor Activity in HeLa Cell-Based Indoleamine 2,3-Dioxygenase (IDO) Assay.
HeLa (ATCCR CCL-2) cells were obtained from the ATCC® and cultured in Dulbecco's Modified Eagle Medium supplemented with 4.5 g/L glucose, […] L-glutamine and […] (#10-013-CV, Corning), 2 mM L-alanyl-L-glutamine dipeptide (#35050-061, Gibco), 100U/mL penicillin, 100 µg/mL streptomycin (#SV30010, HyClone) and 10% fetal bovine serum (#SH30071.03 HyClone). Cells were maintained in a humidified incubator at 37° C. in 5% CO2.
IDO activity was assessed as a function of kynurenine production as follows: HeLa cells were seeded in a 96-well culture plate at a density of 5,000 cells/well and allowed to equilibrate overnight. After 24 hours, the media was aspirated and replaced with media containing IFNγ (#285-IF/CF, R&D Systems) at a final concentration of 25 ng/mL. A serial dilution of each test compound was added to the cells in a total volume of 200 μL of culture medium. After a further 48 hour incubation, 170 μL of supernatant was transferred from each well to a fresh 96-well plate. 12.1 μL of 6. IN trichloroacetic acid (#T0699, Sigma-Aldrich) was added to each well and mixed, followed by incubation at 65° C. for 20 minutes to hydrolyze N-formylkynurenine, the product of indoleamine 2,3-dioxygenase, to kynurenine. The reaction mixture was then centrifuged for 10 mins at 500×g to sediment the precipitate. 100 μL of the supernatant was transferred from each well to a fresh 96-well plate. 100 μl of 2% (w/v) p-dimethylaminobenzaldehyde (#15647-7, Sigma-Aldrich) in acetic acid (#A6283, Sigma-Aldrich) was added to each well mixed and incubated at room temperature for 20 mins. Kynurenine concentrations were determined by measuring absorbance at 480 nm and calibrating against an L-kynurenine (#K8625, Sigma-Aldrich) standard curve using a SPECTRAMAX® M2e microplate reader (Molecular Devices). The percentage activity at each inhibitor concentration was determined and IC50 values assessed using nonlinear regression.

[2] = read-out: IDO Hela IC50 potency class (A < 50, B < 250, C < 2000)

Row | IC50 (human IDO1) [nM] | IC50 [1, 2] [nM] | IC50 ([1]; read-out: IDO Hela IC50) [nM] | Compound
1 | 499 |  |  | CC[C@@H](CC(=O)O)c1ccc([C@H]2CC[C@@H](c3ccccc3)CC2)c(NC(=O)Nc2ccc(C)cc2)c1 (single isomer, unassigned) [Example 1-1, 3-(4-(4-phenylcyclohexyl)-3-(3-(p-tolyl)ureido)phenyl)pentanoic acid]
2 | 1600 |  |  | CC[C@@H](CC(=O)O)c1ccc([C@H]2CC[C@@H](c3ccccc3)CC2)c(NC(=O)Nc2ccc(C)cc2)c1 (single isomer, unassigned) [Example 1-2, 3-(4-(4-phenylcyclohexyl)-3-(3-(p-tolyl)ureido)phenyl)pentanoic acid]
3 | 3 | < 50 |  | CC[C@@H](CC(=O)O)c1ccc([C@H]2CC[C@@H](c3ccccc3)CC2)c(NC(=O)Nc2ccc(C)cc2)c1 (single isomer, unassigned) [Example 1-4, 3-(4-(4-phenylcyclohexyl)-3-(3-(p-tolyl)ureido)phenyl)pentanoic acid]
4 | 1 | < 50 |  | CC[C@@H](CC(=O)O)c1ccc([C@H]2CC[C@@H](c3ccccc3)CC2)c(NC(=O)Nc2ccc(C)cc2)c1 (single isomer, unassigned) [Example 2-3, 3-(4-(4-phenylcyclohexyl)-3-(3-(p-tolyl)ureido)phenyl)pentanoic acid]
5 |  | 250 to 2000 | ≥ 1000 | CCOc1ncc(Nc2cc([C@H](CC)CC(=O)O)ccc2-c2cn3ccccc3n2)cn1 (single isomer, unassigned) [Example 77]
6 |  | 250 to 2000 | ≥ 1000 | CCOc1ncc(Nc2cc([C@H](CC)CC(=O)O)ccc2-c2ccc3nonc3c2)cn1 (single isomer, unassigned) [Example 78]
7 |  |  | 400 | CCOc1ncc(Nc2cc([C@H](CC)CC(=O)O)ccc2-c2ccn3nccc3n2)cn1 (single isomer, unassigned) [Example 79]
8 |  | 250 to 2000 | ≥ 1000 | CCOc1ncc(Nc2cc([C@H](CC)CC(=O)O)ccc2-c2ccc(C#N)c(OC)c2)cn1 (single isomer, unassigned) [Example 80]
9 |  |  | 600 | CCOc1ncc(Nc2cc([C@H](CC)CC(=O)O)ccc2-c2c(C)nn(C)c2C)cn1 (single isomer, unassigned) [Example 81]
10 |  |  | 110 | CCOc1ncc(Nc2cc([C@H](CC)CC(=O)O)ccc2-c2csc(-c3ccccc3)n2)cn1 (single isomer, unassigned) [Example 82]
11 |  |  | 170 | CCOc1ncc(Nc2cc([C@H](CC)CC(=O)O)ccc2-c2ccc3c(c2)OC(F)(F)O3)cn1 (single isomer, unassigned) [Example 83]
12 |  |  | 760 | CCOc1ncc(Nc2cc([C@H](CC)CC(=O)O)ccc2-c2ccnc(N3CCOCC3)n2)cn1 (single isomer, unassigned) [Example 84]
13 |  | 250 to 2000 | ≥ 1000 | CCOc1ncc(Nc2cc([C@H](CC)CC(=O)O)ccc2-c2ccc3cncn3c2)cn1 (single isomer, unassigned) [Example 85]
14 |  | 250 to 2000 | ≥ 1000 | CCOc1ncc(Nc2cc([C@H](CC)CC(=O)O)ccc2-c2ccn3ccnc3c2)cn1 (single isomer, unassigned) [Example 86]
15 |  | 250 to 2000 | ≥ 1000 | CCOc1ncc(Nc2cc([C@H](CC)CC(=O)O)ccc2-c2nc(-c3ccccc3)cs2)cn1 (single isomer, unassigned) [Example 87]
16 |  |  | 400 | CCOc1ncc(Nc2cc([C@H](CC)CC(=O)O)ccc2-c2nnc(C)s2)cn1 (single isomer, unassigned) [Example 89]

Row | Compound | IC50 (human IDO1) [nM] | IC50 [1, 2] [nM] | IC50 ([1]; read-out: IDO Hela IC50) [nM]
17 | (S)-3-(2-((4-cyanophenyl)amino)- -methyl- [1,1′-biphenyl]-4-yl)-4-methoxybutanoic acid [Example 37] |  | 250 to 2000 | ≥ 1000
